Reference: ChEMBL document CHEMBL1681651, “A broad spectrum anticancer nucleoside with selective toxicity against human colon cells in vitro” (2011)

Legend:
Assay type in all cases: functional
[1] = test system: K562; assay: Growth inhibition of human K562 cells assessed as cell growth at 0.1 uM after 48 hrs by SRB assay; details: K562, 48 h, read-out: Activity
[2] = test system: SR; assay: Growth inhibition of human SR cells assessed as cell growth at 0.1 uM after 48 hrs by SRB assay; details: read-out: Activity
[3] = Growth inhibition of human Hs 578T cells assessed as cell growth at 10 uM after 48 hrs by SRB assay; details: read-out: Activity
[4] = test system: PC-3; assay: Growth inhibition of human PC3 cells assessed as cell growth at 0.1 uM after 48 hrs by SRB assay; details: PC-3, 48 h, read-out: Activity
[5] = test system: SW-620; assay: Growth inhibition of human SW620 cells after 48 hrs by […] growth inhibition assay; details: SW-620, 48 h
[6] = test system: MCF7; assay: Growth inhibition of human MCF7 cells assessed as cell growth at 1 mM after 48 hrs by SRB assay; details: Homo sapiens, MCF7, 48 h; read-out: Activity
[7] = test system: SW-620; assay: Growth inhibition of human SW620 cells assessed as cell growth at 1 mM after 48 hrs by SRB assay; details: SW-620, 48 h, read-out: Activity
[8] = test system: HT-29; assay: Growth inhibition of human HT-29 cells assessed as cell growth at 0.1 uM after 48 hrs by SRB assay; details: HT-29, 48 h, read-out: Activity
[9] = test system: SW-620; assay: Growth inhibition of human SW620 cells assessed as cell growth at 1 uM after 48 hrs by SRB assay; details: SW-620, 48 h, read-out: Activity
[10] = test system: SR; assay: Growth inhibition of human SR cells assessed as cell growth at 100 uM after 48 hrs by SRB assay; details: read-out: Activity
[11] = test system: HCT-116; assay: Growth inhibition of human HCT116 cells assessed as cell growth at 10 uM after 48 hrs by SRB assay; details: HCT-116, 48 h, read-out: Activity
[12] = test system: HL-60(TB); assay: Growth inhibition of human HL-60(TB) cells assessed as cell growth at 100 uM after 48 hrs by SRB assay; details: HL-60, 48 h, read-out: Activity
[13] = test system: K562; assay: Growth inhibition of human K562 cells assessed as cell growth at 1 mM after 48 hrs by SRB assay; details: K562, 48 h, read-out: Activity
[14] = test system: SW-620; assay: Growth inhibition of human SW620 cells assessed as cell growth at 0.1 uM after 48 hrs by SRB assay; details: SW-620, 48 h, read-out: Activity
[15] = test system: SR; assay: Growth inhibition of human SR cells after 48 hrs by SRB assay
[16] = test system: HOP-62; assay: Growth inhibition of human HOP62 cells assessed as cell growth at 1 mM after 48 hrs by SRB assay; details: HOP-62, 48 h, read-out: Activity
[17] = test system: SK-MEL-28; assay: Growth inhibition of human SK-MEL-28 cells assessed as cell growth at 1 uM after 48 hrs by SRB assay; details: SK-MEL-28, 48 h, read-out: Activity
[18] = test system: MOLT-4; assay: Growth inhibition of human MOLT4 cells assessed as cell growth at 100 uM after 48 hrs by SRB assay; details: MOLT-4, 48 h, read-out: Activity
[19] = test system: MOLT-4; assay: Growth inhibition of human MOLT4 cells assessed as cell growth at 0.1 uM after 48 hrs by SRB assay; details: MOLT-4, 48 h, read-out: Activity
[20] = test system: K562; assay: Growth inhibition of human K562 cells assessed as cell growth at 1 uM after 48 hrs by SRB assay; details: K562, 48 h, read-out: Activity
[21] = test system: SK-MEL-28; assay: Growth inhibition of human SK-MEL-28 cells assessed as cell growth at 100 uM after 48 hrs by SRB assay; details: SK-MEL-28, 48 h, read-out: Activity
[22] = test system: SK-MEL-28; assay: Growth inhibition of human SK-MEL-28 cells assessed as cell growth at 0.1 uM after 48 hrs by SRB assay; details: SK-MEL-28, 48 h, read-out: Activity
[23] = test system: SW-620; assay: Growth inhibition of human SW620 cells assessed as cell growth at 100 uM after 48 hrs by SRB assay; details: SW-620, 48 h, read-out: Activity
[24] = test system: SR; assay: Growth inhibition of human SR cells assessed as cell growth at 1 mM after 48 hrs by SRB assay; details: read-out: Activity
[25] = test system: NCI/ADR-RES; assay: Growth inhibition of human NCI/ADR-RES cells assessed as cell growth at 1 mM after 48 hrs by SRB assay; details: read-out: Activity
[26] = test system: K562; assay: Growth inhibition of human K562 cells assessed as cell growth at 10 uM after 48 hrs by SRB assay; details: K562, 48 h, read-out: Activity
[27] = test system: A549; assay: Growth inhibition of human A549 cells assessed as cell growth at 1 mM after 48 hrs by SRB assay; details: A549, 48 h, read-out: Activity
[28] = test system: DU-145; assay: Growth inhibition of human DU145 cells assessed as cell growth at 0.1 uM after 48 hrs by SRB assay; details: DU-145, 48 h, read-out: Activity
[29] = test system: HL-60(TB); assay: Growth inhibition of human HL-60(TB) cells assessed as cell growth at 0.1 uM after 48 hrs by SRB assay; details: HL-60, 48 h, read-out: Activity
[30] = test system: T47D; assay: Growth inhibition of human T47D cells assessed as cell growth at 100 uM after 48 hrs by SRB assay; details: read-out: Activity
[31] = Growth inhibition of human Hs 578T cells after 48 hrs by […] growth inhibition assay
[32] = test system: PC-3; assay: Growth inhibition of human PC3 cells assessed as cell growth at 1 mM after 48 hrs by SRB assay; details: PC-3, 48 h, read-out: Activity
[33] = Growth inhibition of human Hs 578T cells assessed as cell growth at 100 uM after 48 hrs by SRB assay; details: read-out: Activity
[34] = Growth inhibition of human […] cells assessed as cell growth at 100 uM after 48 hrs by SRB assay; details: read-out: Activity
[35] = test system: 786-0; assay: Growth inhibition of human 786-0 cells assessed as cell growth at 0.1 uM after 48 hrs by SRB assay; details: 786-0, 48 h, read-out: Activity
[36] = test system: PC-3; assay: Growth inhibition of human PC3 cells assessed as cell growth at 100 uM after 48 hrs by SRB assay; details: PC-3, 48 h, read-out: Activity
[37] = test system: MOLT-4; assay: Growth inhibition of human MOLT4 cells assessed as cell growth at 1 uM after 48 hrs by SRB assay; details: MOLT-4, 48 h, read-out: Activity
[38] = test system: SNB-19; assay: Growth inhibition of human SNB19 cells assessed as cell growth at 10 uM after 48 hrs by SRB assay; details: SNB-19, 48 h, read-out: Activity
[39] = test system: PC-3; assay: Growth inhibition of human PC3 cells assessed as cell growth at 1 uM after 48 hrs by SRB assay; details: PC-3, 48 h, read-out: Activity
[40] = Growth inhibition of human Hs 578T cells assessed as cell growth at 1 uM after 48 hrs by SRB assay; details: read-out: Activity
[41] = test system: MDA-MB-468; assay: Growth inhibition of human MDA-MB-468 cells assessed as cell growth at 10 uM after 48 hrs by SRB assay; details: MDA-MB-468, 48 h, read-out: Activity
[42] = read-out: LC50 (the source's name)
[43] = read-out: pLC50 (the source's name) (converted)

CCOC(=O)C[C@H]1[C@@H](O[Si](C)(C)C(C)(C)C)[C@H](n2cnc3c(NC(=O)Nc4ccccc4)ncnc32)O[C@@H]1CNC(=O)NC
growth at 0.1 µM [1]: 96% | growth at 0.1 µM [2]: 82% | growth at 10 µM [3]: 90% | growth at 0.1 µM [4]: 121% | GI50 ([5]; read-out: GI50): 4.8 µM | CC50 [5, 42]: > 100 µM | TGI ([5]; read-out: TGI): 28.4 µM | GI50 ([5]; read-out: pGI50 (converted)): 4.79 µM | CC50 [5, 43]: > 100 µM | TGI ([5]; read-out: pTGI (converted)): 28.2 µM | growth at 1000 µM [6]: -8% | growth at 1000 µM [7]: -33% | growth at 0.1 µM [8]: 104% | growth at 1 µM [9]: 94% | growth at 100 µM [10]: -15% | growth at 10 µM [11]: 78% | growth at 100 µM [12]: -5% | growth at 1000 µM [13]: -17% | growth at 0.1 µM [14]: 97% | GI50 ([15]; read-out: GI50): 2.23 µM | CC50 [15, 42]: > 100 µM | TGI ([15]; read-out: TGI): 7.07 µM | GI50 ([15]; read-out: pGI50 (converted)): 2.24 µM | CC50 [15, 43]: > 100 µM | TGI ([15]; read-out: pTGI (converted)): 7.08 µM | growth at 1000 µM [16]: -65% | growth at 1 µM [17]: 106% | growth at 100 µM [18]: 8% | growth at 0.1 µM [19]: 93% | growth at 1 µM [20]: 93% | growth at 100 µM [21]: 40% | growth at 0.1 µM [22]: 104% | growth at 100 µM [23]: 28% | growth at 1000 µM [24]: -34% | growth at 1000 µM [25]: 59% | growth at 10 µM [26]: 89% | growth at 1000 µM [27]: -58% | growth at 0.1 µM [28]: 110% | growth at 0.1 µM [29]: 85% | growth at 100 µM [30]: 16% | GI50 ([31]; read-out: GI50): 3.6 µM | CC50 [31, 42]: > 100 µM | TGI ([31]; read-out: TGI): 53.6 µM | GI50 ([31]; read-out: pGI50 (converted)): 3.63 µM | CC50 [31, 43]: > 100 µM | TGI ([31]; read-out: pTGI (converted)): 53.7 µM | growth at 1000 µM [32]: -77% | growth at 100 µM [33]: 18% | growth at 100 µM [34]: -27% | growth at 0.1 µM [35]: 92% | growth at 100 µM [36]: -47% | growth at 1 µM [37]: 84% | growth at 10 µM [38]: 87% | growth at 1 µM [39]: 126% | growth at 1 µM [40]: 95%

CNC(=O)OC[C@H]1O[C@@H](n2cnc3c(NC(=O)Nc4ccccc4)ncnc32)[C@H](O[Si](C)(C)C(C)(C)C)[C@@H]1O[Si](C)(C)C(C)(C)C
growth at 10 µM [3]: 97.6% | growth at 10 µM [11]: 66.7% | growth at 10 µM [26]: 75.4% | growth at 10 µM [41]: 104% | growth at 10 µM [38]: 114%
